Reference: the supplement of paper PMC10307832

Columns and labels:
Experiment in all cases: relative viability (nuclei count vs DMSO), 5 days (fraction); higher = more cells survive
Crenolanib + Crizotinib = compound: CC1(COc2ccc3c(c2)ncn3-c2ccc3cccc(N4CCC(N)CC4)c3n2)COC1 [Crenolanib] + C[C@@H](Oc1cc(-c2cnn(C3CCNCC3)c2)cnc1N)c1c(Cl)ccc(F)c1Cl [Crizotinib] (partner 1 µM)
Outline: (§1)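 Lung cancer cell lines in 1536-well plates got either a single drug or a fixed anchor-drug dose together with five library-drug doses (not always all listed) in √10 steps, by pin tool, on the day after seeding. Nuclei were counted after 5 days, and relative viability is the treated-to-vehicle ratio of nuclei counts. Values are medians of duplicate plates.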

Tivantinib + Tozasertib = compound: O=C1NC(=O)[C@@H](c2cn3c4c(cccc24)CCC3)[C@@H]1c1c[nH]c2ccccc12 [Tivantinib] + Cc1cc(Nc2cc(N3CCN(C)CC3)nc(Sc3ccc(NC(=O)C4CC4)cc3)n2)n[nH]1 [Tozasertib] (partner 0.1 µM)
Outline: as §1

Tivantinib + Trametinib = compound: O=C1NC(=O)[C@@H](c2cn3c4c(cccc24)CCC3)[C@@H]1c1c[nH]c2ccccc12 [Tivantinib] + CC(=O)Nc1cccc(-n2c(=O)n(C3CC3)c(=O)c3c(Nc4ccc(I)cc4F)n(C)c(=O)c(C)c32)c1 [Trametinib] (partner 0.02 µM)
Outline: as §1

Tivantinib + Decitabine = compound: O=C1NC(=O)[C@@H](c2cn3c4c(cccc24)CCC3)[C@@H]1c1c[nH]c2ccccc12 [Tivantinib] + Nc1ncn([C@H]2C[C@H](O)[C@@H](CO)O2)c(=O)n1 [Decitabine] (partner 2 µM)
Outline: as §1

UMC-11
relative viability (Crenolanib + Crizotinib; first compound 0.01 µM): 0.624
relative viability (Crenolanib + Crizotinib; first compound 0.03162 µM): 0.568
relative viability (Crenolanib + Crizotinib; first compound 0.1 µM): 0.674
relative viability (Crenolanib + Crizotinib; first compound 0.3162 µM): 0.804
relative viability (Crenolanib + Crizotinib; first compound 1 µM): 0.606
relative viability (Tivantinib + Tozasertib; first compound 0.01 µM): 0.202
relative viability (Tivantinib + Tozasertib; first compound 0.1 µM): 0.178
relative viability (Tivantinib + Tozasertib; first compound 0.3162 µM): 0.188
relative viability (Tivantinib + Trametinib; first compound 0.01 µM): 0.678
relative viability (Tivantinib + Trametinib; first compound 0.03162 µM): 0.451
relative viability (Tivantinib + Trametinib; first compound 0.1 µM): 0.666
relative viability (Tivantinib + Trametinib; first compound 0.3162 µM): 0.693
relative viability (Tivantinib + Decitabine; first compound 0.01 µM): 0.574
relative viability (Tivantinib + Decitabine; first compound 0.03162 µM): 0.532
relative viability (Tivantinib + Decitabine; first compound 0.1 µM): 0.527
relative viability (Tivantinib + Decitabine; first compound 0.3162 µM): 0.434
